Test results reported in patent US20220296573A1, “NOVEL COMPOUNDS AND PHARMACEUTICAL COMPOSITIONS THEREOF FOR THE TREATMENT OF INFLAMMATORY DISORDERS” (Galapagos NV, priority 2019, published 2022).

Legend:
Format in all cases: cell-based
[1] = tested on: LPS driven NFκB-reporter activity; assay: THP1-Lucia NFκB reporter assay, LPS trigger; conditions: THP-1-Lucia NFκB cells, LPS 2.5 ng/mL, 24 h; read-out: average pEC50, LPS driven NFκB-reporter activity (converted)
Excerpt: (§1) This assay is used to evaluate the IRAK4 selectivity and potency of the compounds of the invention upon IRAK4 dependent (LPS and IL-1β) and independent triggering (TNFα), in a THP1-Lucia NFκB reporter assay.
(§2) THP-1-Lucia NFκB cells (Invivogen—5, rue Jean Rodier 31400 Toulouse France—cat #thp1-nfkb) were cultivated as recommended by the supplier using split cycles each cycle comprising a succession of thawing/expansion/seeding. The data reported were generated using cells having between 3 to 9 cycles. On the day of the experiment THP-1-Lucia NFκB cells were counted and seeded at a density of 1,000,000 cells/mL in culture medium (RPMI 1640 (Gibco, Cat #52400-025)+10% FBS (Sigma, Cat #F7524-500ML)+1% P/S (Gibco, Cat #15140-122)) by pipetting 54 μL/well in a 384 well plate. […]
(§3) For the readout, supernatant samples were thawed on ice and 5 μL sample was transferred from each well to a new 384-well plate. 20 μL of Quanti-Luc solution (Quanti-Luc powder (Invivogen, Cat #rep-qlc1) dissolved in 25 mL sterile water as indicated by the manufacturer) was added to each well after which luminescence was immediately measured on an Envision instrument.
(§4) To measure the inhibition of LPS/TNFα/IL-1β-induced NFκB-reporter activity, percentage inhibition (PIN) values were calculated for all concentrations tested, compared to controls. […]

[2] = tested on: IL-1β driven NFκB-reporter activity; assay: THP1-Lucia NFκB reporter assay, IL-1β trigger; conditions: THP-1-Lucia NFκB cells, IL-1β 3 ng/mL, 24 h; read-out: average pEC50, IL-1β driven NFκB-reporter activity (converted)
Excerpt: as §1, §2, §3, §4

[3] = tested on: TNFα mediated NFκB-reporter activity; assay: THP1-Lucia NFκB reporter assay, TNFα trigger; conditions: THP-1-Lucia NFκB cells, TNFα 10 ng/mL, 24 h
Excerpt: as §1, §2, §3, §4

- EC50 [1]: 0.617 µM
- EC50 [2]: 0.0398 µM
SMILES: COc1cc2nc(C3COCCO3)cn2cc1NC(=O)c1cccn(C2CC2)c1=O (racemic) [Compound 1, 1-cyclopropyl-N-[2-(1,4-dioxan-2-yl)-7-methoxy-imidazo[1,2-a]pyridin-6-yl]-2-oxo-pyridine-3-carboxamide]
- activity on TNFα mediated NFκB-reporter activity [3]: no activity was observed
